Measured values published in patent publication US20240366612A1, “COMPOUNDS AND METHODS FOR MODULATING NUCLEIC ACID SPLICING” (REMIX THERAPEUTICS INC., priority 2021, published 2024).
Structures can show the parent of a compound that is named as a salt.

How the values were obtained:
[1] = Cell Titer Glo 2.0 cell viability assay; conditions: human, K562 cells
Method: Compounds described herein were screened for toxicity in K562 (human chronic myelogenous leukemia) cells using a Cell Titer Glo 2.0 assay.
• Promega CellTiter-Gbo® 2.0 Cell Viability Assay (cat #G9241) • Corning 384-well TC-treated microplates (cat #3570)
Cells were plated at 500 cells/well (K562 cells) in 45 μL of IMDM supplemented with 10% FBS in a 384-well opaque plate. Wells containing only medium were used as a blank control. Test compounds (e.g., compounds of Formula (I), (II), and (III)) were first serially diluted in DMSO then diluted 1:100 with IMDM+10% FBS. The final concentration of DMSO was 0.1% in each well. The cells were incubated for 72 hours at 37° C. and 5% CO2 before assaying with Cell Titer Glo 2.0 reagent.

HTT mRNA = test: Splicing RT-qPCR assay, HTT canonical (CJ) and alternative (AJ) junction mRNA; assay type: cell-based; conditions: Homo sapiens, A673 or K562 cells, 24 hours treatment; for IC50: decrease in CJ mRNA; for AC50: increase in AJ mRNA
In short: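 Compound-treated A673 or K562 cells (11-point 3-fold dilution, top dose 10 uM final, DMSO ≤0.25%) were incubated for 24 h at 37° C. Lysates underwent one-step RT-qPCR for canonical and alternative-exon junction isoforms. Normalization used PPIA for A673 and GAPDH or GUSB for K562.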

SMN2 CJ mRNA = test: Gene panel canonical junction qPCR assay, SMN2; assay type: cell-based; conditions: Homo sapiens, larger gene panel, read-out: SMN2 IC50 (decrease in CJ mRNA levels)
In short: (§1)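 A673 or K562 cells treated 24 h with 11-point 3-fold dilutions (top 10 µM, ≤0.25% DMSO) at 37 °C. Canonical exon-junction mRNA measured by probe-based RT-qPCR, normalized to GAPDH, GUSB or PPIA and DMSO (2^−ΔΔCt), converted to percent response over a fixed ΔCt window; IC50 from 4-parameter fit.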

MYB CJ mRNA = test: Gene panel canonical junction qPCR assay, MYB; assay type: cell-based; conditions: Homo sapiens, larger gene panel, read-out: MYB IC50 (decrease in CJ mRNA levels)
In short: as §1

Target C CJ mRNA = test: Gene panel canonical junction qPCR assay, Target C; assay type: cell-based; conditions: Homo sapiens, larger gene panel, read-out: Target C IC50 (decrease in CJ mRNA levels)
In short: as §1

Row | IC50 (HTT mRNA) [µM] | IC50 (SMN2 CJ mRNA) [µM] | IC50 (MYB CJ mRNA) [µM] | IC50 (Target C CJ mRNA) [µM] | Structure (SMILES) | GI50 at 72 h [1] [µM] | AC50 (HTT mRNA) [µM]
1 | 1 to 10 | 1 to 10 | 1 to 10 | 1 to 10 | Cc1cn2nc(-c3cn4c(=O)cc(N5CCNC6(CC6)C5)nc4s3)cc(C)c2n1 [Compound 212, 2-(2,8-dimethylimidazo[1,2-b]pyridazin-6-yl)-7-(4,7-diazaspiro[2.5]octan-7-yl)-5H-thiazolo[3,2-a]pyrimidin-5-one] | 1 to 10 | 1 to 10
2 | > 10 | > 10 | > 10 | > 10 | Cc1cn2cc(-c3nc4cnn(C5CCNCC5)c(=O)c4s3)nc(C)c2n1 [Compound 812, 2-(2,8-dimethylimidazo[1,2-a]pyrazin-6-yl)-6-(piperidin-4-yl)thiazolo[4,5-d]pyridazin-7(6H)-one] | 0.1 to 1 | > 10
3 | > 10 | > 10 | > 10 | > 10 | Cc1cn2cc(-c3cc4ncn(C5CNCCC5=O)c(=O)c4s3)cc(F)c2n1 (stereo not drawn) [Compound 279, 3-(6-{8-fluoro-2-methylimidazo[1,2-a]pyridin-6-yl}-4-oxothieno [3,2-d]pyrimidin-3-yl)piperidin-4-one] | > 10 | > 10
4 | > 10 | > 10 | > 10 | > 10 | Cc1cn2cc(-n3ccc4cc(C5CCNCC5)sc4c3=O)cc(F)c2n1 [Compound 801, 6-[8-fluoro-2-methylimidazo[1,2-a]pyridin-6-yl]-2-(piperidin-4-yl)thieno[2,3-c]pyridin-7-one] | > 10 | > 10
5 | 0.1 to 1 | 0.1 to 1 | 0.1 to 1 | 0.1 to 1 | Cc1cn2cc(-c3cc4ccn(C5CCNCC5)c(=O)c4s3)cc(F)c2n1 [Compound 804, 2-(8-fluoro-2-methylimidazo[1,2-a]pyridin-6-yl)-6-(piperidin-4-yl)thieno[2,3-c]pyridin-7(6H)-one] | 0.1 to 1 | 0.1 to 1
6 | 1 to 10 | 0.1 to 1 | 1 to 10 | 1 to 10 | Cc1cc(-c2nn3c(=O)cc(N4CCNCC4)nc3s2)cc2cn(C)nc12 [Compound 206, 2-(2,7-dimethyl-2H-indazol-5-yl)-7-(piperazin-1-yl)-5H-[1,3,4]thiadiazolo[3,2-a]pyrimidin-5-one] | 1 to 10 | 1 to 10
7 | 0.1 to 1 | < 0.1 | 0.1 to 1 | 0.1 to 1 | Cc1cn2cc(-c3cc4ncn(C5CCCNCC5)c(=O)c4s3)cc(F)c2n1 (stereo not drawn) [Compound 275, 3-(azepan-4-yl)-6-{8-fluoro-2-methylimidazo[1,2-a]pyridin-6-yl}thieno[3,2-d]pyrimidin-4-one] | 0.1 to 1 | 0.1 to 1
8 | < 0.1 | < 0.1 | 0.1 to 1 | 0.1 to 1 | Cc1cc(-c2nc3ncn(C4CCNCC4)c(=O)c3s2)cc2cn(C)nc12 [Compound 233, 2-(2,7-dimethyl-2H-indazol-5-yl)-6-(piperidin-4-yl)thiazolo[4,5-d]pyrimidin-7(6H)-one] | 0.1 to 1 | < 0.1
9 | 1 to 10 | 1 to 10 | 1 to 10 | 1 to 10 | Cn1cc2cc(-c3cc4ncn(C5CCNCC5)c(=O)c4s3)cc(F)c2n1 [Compound 257] | 1 to 10 | 1 to 10
10 | > 10 | 1 to 10 | > 10 | > 10 | Cc1cn2cc(-c3cc4ncn(C5CCNCC5(F)F)c(=O)c4s3)cc(F)c2n1 (stereo not drawn) [Compound 274, 3-(3,3-difluoropiperidin-4-yl)-6-{8-fluoro-2-methylimidazo[1,2-a]pyridin-6-yl}thieno[3,2-d]pyrimidin-4-one] | > 10 | 1 to 10
11 | 0.1 to 1 | < 0.1 | 0.1 to 1 | 0.1 to 1 | Cc1cn2cc(-c3cc4ncn(C5CCN(C)CC5)c(=O)c4s3)cc(F)c2n1 [Compound 265, 6-{8-fluoro-2-methylimidazo[1,2-a]pyridin-6-yl}-3-(1-methylpiperidin-4-yl)thieno[3,2-d]pyrimidin-4-one] | 0.1 to 1 | 0.1 to 1
12 | 0.1 to 1 | 0.1 to 1 | 0.1 to 1 | 0.1 to 1 | Cc1cn2nc(-c3nc4sc(N5CCNCC5)nc4c(=O)[nH]3)cc2c(C)n1 [Compound 267] | 0.1 to 1 | 0.1 to 1
13 | > 10 | 0.1 to 1 | > 10 | > 10 | Cc1cn2nc(-c3nc4sc(N5CCN(C)CC5)nc4c(=O)[nH]3)cc2c(C)n1 [Compound 268] | > 10 | > 10
14 | 0.1 to 1 | < 0.1 | 0.1 to 1 | 1 to 10 | Cc1cc(-c2cc3ccn(C4CCNCC4)c(=O)c3s2)cc2cn(C)nc12 [Compound 805, 2-(2,7-dimethyl-2H-indazol-5-yl)-6-(piperidin-4-yl)thieno[2,3-c]pyridin-7(6H)-one] | 1 to 10 | 0.1 to 1
15 | > 10 | > 10 | > 10 | > 10 | Cc1cn2cc(N3CCc4cc(C5CCNCC5)sc4C3=O)cc(F)c2n1 [Compound 800, 6-[8-fluoro-2-methylimidazo[1,2-a]pyridin-6-yl]-2-(piperidin-4-yl)-4H,5H-thieno[2,3-c]pyridin-7-one] | > 10 | > 10
16 | 1 to 10 | 0.1 to 1 | 1 to 10 | > 10 | Cc1nc(-c2nc3cnn(C4CCNCC4)c(=O)c3s2)cc2cn(C)nc12 [Compound 811] | 1 to 10 | 1 to 10
17 | 1 to 10 | 0.1 to 1 | 1 to 10 | 1 to 10 | Cn1cc2cc(-c3nc4ncn(C5CCNCC5)c(=O)c4s3)c(O)cc2n1 [Compound 253, 2-(6-hydroxy-2-methyl-2H-indazol-5-yl)-6-(piperidin-4-yl)thiazolo[4,5-d]pyrimidin-7(6H)-one, hydrochloride] | > 10 | 1 to 10
18 | 1 to 10 | 0.1 to 1 | 1 to 10 | 1 to 10 | Cc1cn2cc(-c3cc4ncn(C5CCNCC5)c(=O)c4s3)ncc2n1 [Compound 264] | 1 to 10 | 1 to 10
19 | 0.1 to 1 | < 0.1 | 0.1 to 1 | 1 to 10 | Cc1cn2cc(-c3cc4ncn(C5CCNCC5)c(=O)c4s3)cc(C)c2n1 [Compound 261] | 1 to 10 | 1 to 10
20 | > 10 | > 10 | > 10 | > 10 | Cc1cn2cc(-n3cnc4nc(N5CCNCC5)sc4c3=O)cc(C(F)(F)F)c2n1 [Compound 229, 6-(2-methyl-8-(trifluoromethyl)imidazo[1,2-a]pyridin-6-yl)-2-(piperazin-1-yl)thiazolo[4,5-d]pyrimidin-7(6H)-one] | > 10 | > 10
21 | 1 to 10 | 0.1 to 1 | 1 to 10 | 1 to 10 | Cc1cn2nc(-c3cc4ccn(C5CCN(C)CC5)c(=O)c4s3)cc(C)c2n1 [Compound 809] | 1 to 10 | 1 to 10
22 | 1 to 10 | < 0.1 | 0.1 to 1 | 1 to 10 | Cc1nc(-c2cc3ncn(C4CCNCC4)c(=O)c3s2)cc2cn(C)nc12 [Compound 271] | 1 to 10 | 1 to 10
23 | > 10 | > 10 | > 10 | > 10 | Cn1cc2cc(-n3cnc4nc(N5CCNCC5)sc4c3=O)ccc2n1 [Compound 225, 6-(2-methyl-2H-indazol-5-yl)-2-(piperazin-1-yl)thiazolo[4,5-d]pyrimidin-7(6H)-one] | > 10 | > 10
24 | 1 to 10 | 1 to 10 | 1 to 10 | 1 to 10 | Cc1cn2cc(-c3nn4c(=O)cc(N5CCN(C)C6(CC6)C5)nc4s3)cc(F)c2n1 [Compound 218, 2-(8-fluoro-2-methylimidazo[1,2-a]pyridin-6-yl)-7-(4-methyl-4,7-diazaspiro[2.5]octan-7-yl)-5H-[1,3,4]thiadiazolo[3,2-a]pyrimidin-5-one] | 1 to 10 | 1 to 10
25 | > 10 | > 10 | > 10 | > 10 | Cc1cc(-c2cc(=O)n3nc(N4CCN(C)CC4)sc3n2)cc2cn(C)nc12 [Compound 157, 7-(2,7-dimethyl-2H-indazol-5-yl)-2-(4-methylpiperazin-1-yl)-5H-[1,3,4]thiadiazolo[3,2-a]pyrimidin-5-one] | > 10 | > 10

Row | Structure (SMILES) | IC50 (HTT mRNA) [µM] | IC50 (SMN2 CJ mRNA) [µM] | IC50 (MYB CJ mRNA) [µM] | IC50 (Target C CJ mRNA) [µM] | GI50 at 72 h [1] [µM] | AC50 (HTT mRNA) [µM]
26 | Cc1cn2cc(-n3cnc4nc(N5CCN(C)CC5)sc4c3=O)cc(C(F)(F)F)c2n1 [Compound 230, 6-(2-methyl-8-(trifluoromethyl)imidazo[1,2-a]pyridin-6-yl)-2-(4-methylpiperazin-1-yl)thiazolo[4,5-d]pyrimidin-7(6H)-one] | > 10 | > 10 | > 10 | > 10 | > 10 | > 10
